In paper PMC8037406, “Symbiotic NCR Peptide Fragments Affect the Viability, Morphology and Biofilm Formation of Candida Species” (International Journal of Molecular Sciences, 2021):
Where two headings read alike, the source gives them in different places. Where a SMILES comes first, the peptide text is derived from it.

Legend:
[1] = test system: C. tropicalis CBS 94 biofilm; test: Biofilm formation assay, XTT; assay type: cell-based, Candida tropicalis; conditions: 72 h, 37 °C, 5 % CO2, 1/8AIM medium, p ≤ 0.0001
[2] = test system: C. albicans ATCC 10231 biofilm; test: Biofilm formation assay, XTT; assay type: cell-based, Candida albicans; conditions: 72 h, 37 °C, 5 % CO2, 1/8AIM medium, p ≤ 0.0001
[3] = test system: Candida cells; test: Fungicide effect, spotting of treated cells on solid YPD medium; assay type: cell-based, Candida species; conditions: 1.56–25 µM, 24 h treatment, dilutions spotted on solid YPD medium, 48 h, 30 °C
Description: To determine whether the inhibitory effect of the peptides is generated by fungistatic or fungicide action, the Candida cells were treated with the peptides in the same concentration range (1.56–25 µM) as in the growth inhibition assay. After 24 h 5 µL sample from the untreated control cells and from the peptide treated cells was added to 95 µL water and diluted further 10- and 100-fold. From each dilution, 5 µL was placed on solid medium and the growth of the control and peptide treated cells was compared after 48 h incubation at 30 °C. This assay confirmed that all the effective peptides, NCR335N1–19, NCR335N7–21, NCR335C1–33, NCR335C13–33, NCR335C17–33, NCR169C17–38, NCR169C17–38ox, NCR169C17–38W10,20/A provoked growth inhibition through fungicidal actions (Figure A2). The fungicide concentrations, required for the complete elimination of the Candida cells, were either equal to or twice higher than the minimum inhibitory concentrations presented in Table 2.
The same initial experimental setting was used to determine the fungicide effect of the peptides. Five µL samples were taken from the cultures after 24 h and were added to 95 µL sterile distilled water, and diluted to 10- and 100-fold (indicated as 10^4, 10^3 and 10^2 based on the cell number of the control culture in Figure A2). Five µL from each dilution were placed on solid YPD medium and the growth of the strains was detected after 48 h incubation at 30 °C.

[4] = test system: C. albicans ATCC 10231 biofilm; test: Morphology of biofilm-located cells, scanning electron microscopy; assay type: cell-based, Candida albicans; conditions: SEM, 72 h, 37 °C, sub-lethal concentrations
[5] = test system: C. auris; conditions: for reduction of MIC in the synergistic combination: compared with single use
Description: Amphotericin B, due to its high toxicity was not included in this assay.
The effects of the different combinations of fluconazole and NCR335C17–33, NCR169C17–38 or NCR169C17–38ox were determined by standard checkerboard titration method. The fluconazole was tested in a concentration range from 6.25 to 75 µM, NCR169C17–38 and NCR169C17–38ox from 0.78 to 12.50 µM, NCR335C17–33 from 1.56 to 25 µM. The initial cell concentration in each well was 4 × 10^4 cell/mL. After the incubation for 72 h at 30 °C, the optical density of the cultures was detected at 620 nm in SPECTROstar Nano plate reader (BMG LabTech, Offenburg, Germany). The inhibitory concentrations were determined for each compound alone and in combinations. The experiments were carried out at least three times. The effect of combinations was evaluated by fractional inhibitory concentration (FIC) index. FIC = FICA + FICB. FICA = (MICA in combination)/(MICA alone); FICB = (MICB in combination)/(MICB alone)

[6] = test system: C. albicans SZMC 1458 biofilm; test: Biofilm formation assay, XTT; assay type: cell-based, Candida albicans; conditions: 72 h, 37 °C, 5 % CO2, 1/8AIM medium, p ≤ 0.0001
[7] = test system: Candida parapsilosis CBS 604; test: microbe, parasite or virus in culture; assay type: cell-based; conditions: micro-dilution, YNB medium, 4 × 10^4 cell/mL, 48 h, 30 °C, OD 620 nm; MIC = growth inhibition ≥90%; peptides 25 to 1.56 µM, fluconazole 200 to 0.78 µM; three biological repeats in triplicates; also: key: -: no growth inhibition was observed
[8] = test system: C. tropicalis CBS 94 biofilm; test: Morphology of biofilm-located cells, scanning electron microscopy; assay type: cell-based, Candida tropicalis; conditions: SEM, 72 h, 37 °C, 1.56 µM peptide
[9] = test system: C. albicans SC 5314 biofilm; test: Biofilm formation assay, XTT; assay type: cell-based, Candida albicans; conditions: 72 h, 37 °C, 5 % CO2, 1/8AIM medium, p ≤ 0.0001
[10] = test system: C. tropicalis CBS 94; test: Yeast-hypha morphology, bright-field microscopy; assay type: cell-based, Candida tropicalis; conditions: 1.56 µM peptide, 48 h, 1/8AIM medium
Text: (§1) As hyphae formation is an important virulence factor, we investigated how the broad range activity peptides, NCR335C17–33, NCR169C17–38 and NCR169C17–38ox affect the morphological switch of C. albicans ATCC 10231 and C. tropicalis between the hyphal and yeast growth forms at sub-lethal concentrations (Figure 1). […] However, not only the morphology changed, but the cell number also declined, particularly in the latter case.
(§2) To induce morphological change of C. albicans and C. tropicalis YNB medium was changed for eight-fold diluted AIM-V+AlbuMAX (BSA) medium (Gibco, Thermo Fisher Scientific, Dublin, Ireland) referred to as 1/8AIM in the text.
(§3) Bright-field microscopy. The morphology of C. albicans ATCC 10231 and C. tropicalis cells was examined after 48 h incubation with the selected peptides (NCR335C17–33 and NCR169C17–38) by Zeiss Axio Observer inverted microscope (Carl Zeiss AG, Jena, Germany). The concentration of the NCR335C17–33 was 1.56 and 3.12 µM, NCR169C17–38 1.56 or 3.12 µM while NCR169C17–38ox 0.78 or 3.12 µM, the initial cell concentration was set to 4 × 10^4 cell/mL. Cells cultivated without peptides were used as control.

[11] = test system: C. albicans ATCC 10231; test: Yeast-hypha morphology, bright-field microscopy; assay type: cell-based, Candida albicans; conditions: 3.12 µM peptide, 48 h, 1/8AIM medium, sub-lethal concentration
Text: as §1, §2, §3

[12] = NCR169C17–38 + NCR169C17–38ox, C. auris
[13] = checkerboard, C. auris, 72 h, 30 °C, drug A fluconazole + drug B NCR169C17–38

CC[C@H](C)[C@H](NC(=O)[C@H](CCCCN)NC(=O)[C@H](Cc1ccccc1)NC(=O)[C@H](CC(C)C)NC(=O)[C@@H]1CCCN1C(=O)[C@H](CCCCN)NC(=O)[C@H](CCCCN)NC(=O)[C@H](CO)NC(=O)[C@@H](N)CCCCN)C(=O)N[C@@H](Cc1c[nH]c2ccccc12)C(=O)N[C@@H](CCCCN)C(=O)N[C@@H](CS)C(=O)N[C@H](C(=O)N[C@@H](CCC(=O)O)C(=O)N[C@@H](CC(N)=O)C(=O)N[C@H](C(=O)N[C@@H](CS)C(=O)N[C@H](C(=O)N[C@@H](CC(C)C)C(=O)N[C@@H](Cc1c[nH]c2ccccc12)C(=O)N[C@@H](Cc1ccc(O)cc1)C(=O)N[C@@H](CCCCN)C(N)=O)C(C)C)C(C)C)C(C)C [NCR169C17–38] (H-KSKKPLFKIWKCVENVCVLWYK-NH2; N-terminus assumed)
concentration significantly inhibiting biofilm formation, relative to MIC [1]: half MIC | concentration significantly inhibiting biofilm formation, relative to MIC [2]: half MIC | growth inhibition by fungistatic or fungicide action [3]: fungicidal | morphology of cells in the biofilm [4]: reduced the abundance of the hyphal form | Action [5, 12]: Synergism | reduction of MIC in the synergistic combination [5, 12]: 2 × | reduction of MIC in the synergistic combination ([5]; NCR169C17–38 + NCR335C17–33 (3.12 μM), C. auris): 4 × | Action ([5]; NCR169C17–38 + NCR335C17–33, C. auris): Synergism | concentration of drug A for the indicated action ([5]; checkerboard, C. auris, 72 h, 30 °C, drug A NCR169C17–38 + drug B NCR169C17–38ox): 3.12 µM | FICB [5, 13]: 0.125 | concentration of drug B for the indicated action [5, 13]: 0.78 µM | Action ([5]; fluconazole + NCR169C17–38, C. auris): Additive | concentration significantly inhibiting biofilm formation, relative to MIC [6]: MIC | Minimal inhibitory concentration, Cp CBS 604 [7]: - | morphology of cells in the biofilm [8]: the cell number was drastically reduced, and the yeast form was also dominant | concentration significantly inhibiting biofilm formation, relative to MIC [9]: one-fourth of the MIC | effect on hyphal/yeast growth form [10]: shifted to the yeast form | effect on hyphal growth [11]: completely inhibited the hyphal growth
